Measurements from patent EP1202975B1, “SUBSTITUTED POLYCYCLIC ARYL AND HETEROARYL PYRAZINONES USEFUL FOR SELECTIVE INHIBITION OF THE COAGULATION CASCADE” (Pharmacia Corporation, priority 1999, dated 2000).
Like-named read-outs stand apart in the source and are kept apart here.

Legend:
[1] = molecular target: T1, TF-VIIa (Homo sapiens, UniProt P08709); experiment: TF-VIIa Assay; assay type: biochemical
T1 construct: 2nM recombinant human factor VIIa; purchased American Diagnostica, Greenwich CT; host or cells: soluble TF made in house in E. coli

[2] = molecular target: Human factor Xa (Homo sapiens, UniProt P00742)
[3] = read-out: IC50 or % Inhibition TF-VIIa (30 µM); cells given as a plain number (IC50)
[4] = cells given as a plain number (IC50); read-out: IC50 or % Inhibition TF-VIIa (30 µM)

T1 sequence (P08709 213-466 limits assumed): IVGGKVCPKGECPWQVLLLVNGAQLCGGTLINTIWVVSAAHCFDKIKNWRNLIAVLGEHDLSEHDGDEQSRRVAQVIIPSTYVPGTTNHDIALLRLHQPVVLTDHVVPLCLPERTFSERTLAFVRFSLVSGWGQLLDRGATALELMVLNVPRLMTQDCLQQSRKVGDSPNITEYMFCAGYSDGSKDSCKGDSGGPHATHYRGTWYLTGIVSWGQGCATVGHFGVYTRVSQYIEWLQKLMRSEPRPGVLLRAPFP
T1 sequence (P08709 61-212 limits assumed): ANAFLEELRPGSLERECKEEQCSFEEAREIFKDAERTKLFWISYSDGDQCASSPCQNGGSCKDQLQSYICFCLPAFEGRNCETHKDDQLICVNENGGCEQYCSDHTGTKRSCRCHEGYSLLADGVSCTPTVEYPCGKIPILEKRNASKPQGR
T1 sequence (P13726 33-251 partner limits assumed): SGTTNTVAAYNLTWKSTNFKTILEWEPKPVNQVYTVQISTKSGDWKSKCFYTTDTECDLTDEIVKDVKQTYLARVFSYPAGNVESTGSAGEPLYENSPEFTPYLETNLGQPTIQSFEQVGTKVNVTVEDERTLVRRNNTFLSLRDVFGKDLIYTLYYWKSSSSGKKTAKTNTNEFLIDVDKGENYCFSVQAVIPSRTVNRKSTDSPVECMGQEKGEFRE
Sequence of Human factor Xa (P00742 235-488 limits assumed): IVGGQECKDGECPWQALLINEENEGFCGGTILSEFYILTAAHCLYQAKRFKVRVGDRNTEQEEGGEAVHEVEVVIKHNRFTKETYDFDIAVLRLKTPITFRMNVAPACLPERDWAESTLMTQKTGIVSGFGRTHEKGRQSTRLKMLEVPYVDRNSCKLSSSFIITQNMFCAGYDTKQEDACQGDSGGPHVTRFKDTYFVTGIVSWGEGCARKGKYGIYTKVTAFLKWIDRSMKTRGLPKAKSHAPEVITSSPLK
Sequence of Human factor Xa (P00742 41-179 limits assumed): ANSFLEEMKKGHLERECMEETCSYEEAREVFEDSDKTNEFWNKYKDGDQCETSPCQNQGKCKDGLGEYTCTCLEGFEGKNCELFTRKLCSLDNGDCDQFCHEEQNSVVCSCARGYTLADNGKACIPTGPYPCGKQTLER

N=C(N)c1ccc(CNC(=O)Cn2c(Cc3ccccc3)c(Cl)nc(NCCc3ccccc3)c2=O)cc1 [Example 20]
IC50 or % Inhibition TF-VIIa (30 µM) [1]: 41%@30 | IC50 or % Inhibition Factor Xa (30 µM) [2]: 6%@30

N=C(N)NCC#CCNC(=O)Cn1c(-c2ccccc2)cnc(NCCc2ccccc2)c1=O [Example 36]
IC50 or % Inhibition TF-VIIa (30 µM) [1]: 5% | IC50 or % Inhibition Factor Xa (30 µM) [2]: 0%

N=C(N)NC/C=C\CNC(=O)Cn1c(-c2ccccc2)cnc(NCCc2ccccc2)c1=O [Example 37]
IC50 [1, 3]: 1800 nM | IC50 or % Inhibition Factor Xa (30 µM) [2]: 0%

Nc1n[nH]c2ccc(CNC(=O)Cn3c(-c4ccccc4)cnc(NCCc4ccccc4)c3=O)cc12 [Example 38]
IC50 [1, 3]: 900 nM | IC50 or % Inhibition Factor Xa (30 µM) [2]: 22%

Nc1n[nH]c2cc(CNC(=O)Cn3c(-c4ccccc4)cnc(NCCc4ccccc4)c3=O)ccc12 [Example 39]
IC50 [1, 3]: 1700 nM | IC50 or % Inhibition Factor Xa (30 µM) [2]: 0%

N=C(N)c1ccc(CNC(=O)Cn2c(-c3cccc(N)c3)c(Cl)nc(NC3CCC3)c2=O)cc1F [Example 40]
IC50 [1, 4]: 60 nM | IC50 or % Inhibition Factor Xa (30 µM) [2]: 0%

CC(C)Nc1nc(Cl)c(-c2cccc(N)c2)n(CC(=O)NCc2ccc(C(=N)N)c(F)c2)c1=O [Example 42]
IC50 [1, 3]: 500 nM | IC50 or % Inhibition Factor Xa (30 µM) [2]: 0%

CC(C)Nc1ncc(-c2cccc(N)c2)n(CC(=O)NCc2ccc(C(=N)N)c(F)c2)c1=O [Example 43]
IC50 [1, 3]: 250 nM | IC50 or % Inhibition Factor Xa (30 µM) [2]: 0%

CC(C)Nc1nc(Cl)c(-c2cccc([N+](=O)[O-])c2)n(CC(=O)NCc2ccc(C(N)=NO)cc2)c1=O [Example 61]
IC50 or % Inhibition TF-VIIa (30 µM) [1]: 1% | IC50 or % Inhibition Factor Xa (30 µM) [2]: 0%

CC(C)Nc1nc(Cl)c(-c2cccc(N)c2)n(CC(=O)NCCc2ccc(C(=N)N)cc2)c1=O [Example 62]
IC50 [1, 3]: 5600 nM | IC50 or % Inhibition Factor Xa (30 µM) [2]: 10%

COC(=O)c1cccc(-c2c(Cl)nc(NC(C)C)c(=O)n2CC(=O)NCc2ccc(C(=N)N)cc2)c1 [Example 64]
IC50 [1, 4]: 780 nM | IC50 or % Inhibition Factor Xa (30 µM) [2]: 19%

CC(C)Nc1nc(Cl)c(-c2cccc(C(=O)O)c2)n(CC(=O)NCc2ccc(C(=N)N)cc2)c1=O [Example 65]
IC50 [1, 4]: 360 nM | IC50 or % Inhibition Factor Xa (30 µM) [2]: 12%

N=C(N)c1ccc(CNC(=O)Cn2c(-c3ccccc3O)c(Cl)nc(NC3CCC3)c2=O)cc1 [Example 66]
IC50 [1, 4]: 340 nM | IC50 or % Inhibition Factor Xa (30 µM) [2]: 0%

CC(=O)Nc1cccc(-c2c(Cl)nc(NC(C)C)c(=O)n2CC(=O)NCCc2ccc(C(=N)N)cc2)c1 [Example 68]
IC50 or % Inhibition TF-VIIa (30 µM) [1]: 32% | IC50 or % Inhibition Factor Xa (30 µM) [2]: 6%

Cc1c(Cl)nc(NCc2ccccc2)c(=O)n1CC(=O)NCCc1ccncc1 [Example E-0001]
% Inhibition TF-VIIa (100 µM) [1]: 0% | % Inhibition Factor Xa (100 µM) [2]: 1%

Cc1c(Cl)nc(NCCc2ccccc2)c(=O)n1CC(=O)NCCc1ccncc1 [Example E-0002]
% Inhibition TF-VIIa (100 µM) [1]: 0% | % Inhibition Factor Xa (100 µM) [2]: 0%

Cc1c(Cl)nc(NCCc2cccc(Cl)c2)c(=O)n1CC(=O)NCCc1ccncc1 [Example E-0003]
% Inhibition TF-VIIa (100 µM) [1]: 0% | % Inhibition Factor Xa (100 µM) [2]: 0%

Cc1c(Cl)nc(NCCc2ccc(Cl)cc2)c(=O)n1CC(=O)NCCc1ccncc1 [Example E-0004]
% Inhibition TF-VIIa (100 µM) [1]: 0% | % Inhibition Factor Xa (100 µM) [2]: 0%

Cc1c(Cl)nc(NCCc2cccnc2)c(=O)n1CC(=O)NCCc1ccncc1 [Example E-0005]
% Inhibition TF-VIIa (100 µM) [1]: 0% | % Inhibition Factor Xa (100 µM) [2]: 0%

Cc1c(Cl)nc(NCCc2ccncc2)c(=O)n1CC(=O)NCCc1ccncc1 [Example E-0006]
% Inhibition TF-VIIa (100 µM) [1]: 2% | % Inhibition Factor Xa (100 µM) [2]: 0%

Cc1c(Cl)nc(NCCN2CCOCC2)c(=O)n1CC(=O)NCCc1ccncc1 [Example E-0007]
% Inhibition TF-VIIa (100 µM) [1]: 0% | % Inhibition Factor Xa (100 µM) [2]: 0%

Cc1c(Cl)nc(NCc2ccncc2)c(=O)n1CC(=O)NCCc1ccncc1 [Example E-0008]
% Inhibition TF-VIIa (100 µM) [1]: 0% | % Inhibition Factor Xa (100 µM) [2]: 0%

O=C(Cn1c(-c2ccccc2)c(Cl)nc(NCc2ccccc2)c1=O)NCCc1ccncc1 [Example E-0009]
% Inhibition TF-VIIa (100 µM) [1]: 0% | % Inhibition Factor Xa (100 µM) [2]: 1%

O=C(Cn1c(-c2ccccc2)c(Cl)nc(NCCc2ccccc2)c1=O)NCCc1ccncc1 [Example E-0010]
% Inhibition TF-VIIa (100 µM) [1]: 0% | % Inhibition Factor Xa (100 µM) [2]: 0%

O=C(Cn1c(-c2ccccc2)c(Cl)nc(NCCc2cccc(Cl)c2)c1=O)NCCc1ccncc1 [Example E-0011]
% Inhibition TF-VIIa (100 µM) [1]: 0% | % Inhibition Factor Xa (100 µM) [2]: 0%

O=C(Cn1c(-c2ccccc2)c(Cl)nc(NCCc2ccc(Cl)cc2)c1=O)NCCc1ccncc1 [Example E-0012]
% Inhibition TF-VIIa (100 µM) [1]: 0% | % Inhibition Factor Xa (100 µM) [2]: 0%

O=C(Cn1c(-c2ccccc2)c(Cl)nc(NCCc2cccnc2)c1=O)NCCc1ccncc1 [Example E-0013]
% Inhibition TF-VIIa (100 µM) [1]: 0% | % Inhibition Factor Xa (100 µM) [2]: 0%

O=C(Cn1c(-c2ccccc2)c(Cl)nc(NCCc2ccncc2)c1=O)NCCc1ccncc1 [Example E-0014]
% Inhibition TF-VIIa (100 µM) [1]: 0% | % Inhibition Factor Xa (100 µM) [2]: 0%
